The values below come from US8729102B2, “Bicyclic compound” (Takeda Pharmaceutical Company Limited, priority 2010, dated 2014).

The target in series [1] is T1, Human ACC2 (ACC2 (Nd), N terminal deleted) (Homo sapiens, UniProt O00763).
T1 construct: made in house; host or cells: SF-9 insect cells (baculovirus)
The series can be described thus: Measurement of ACC2 inhibitory activity (malachite green, recombinant ACC2 (Nd)). The class given is biochemical. Particulars: 10 μM test compound, 20 min preincubation at 30° C., 20 min reaction; for inhibition at 10 µM: read-out: ACC2 inhibitory rate at 10 μM (%). On the procedure: The ACC2 inhibitory action of the compound of the present invention was evaluated by the following method.
(1) Cloning of Human ACC2 Gene and Preparation of Recombinant Baculovirus
Human ACC2 gene was cloned by PCR using a human skeletal muscle cDNA library (Clontech) as a template and Primer 1 and Primer 2 shown below. Primer 1 and Primer 2 were prepared by adding SalI, XbaI restriction enzyme recognition sequences based on the information of the base sequence of human ACC2 gene (Genbank Accession U89344).
PCR was performed using Pyrobest DNA polymerase (TAKARA BIO INC.). The obtained PCR product was cloned to pT7 Blue vector (Novagen) and after confirmation of the base sequence, digested with restriction enzymes SalI and XbaI. The obtained DNA fragment was inserted into pFAST-BacHTa (Invitrogen) digested with restriction enzymes Sail and XbaI to give expression plasmid ACC2/pFAST-BacHTa.
A plasmid for expression of ACC2 without a mitochondrial targeting sequence was prepared by PCR using the expression plasmid as a template, and Primer 3 (salI restriction enzyme recognition sequence was added) and Primer 4, which are prepared by reference to the information of human ACC2 gene base sequence (Genbank Accession U89344).
PCR was performed using Pyrobest-DNA polymerase (TAKARA BIO INC.). The obtained PCR product was cloned to pT7 Blue vector (Novagen) and after confirmation of the base sequence, digested with restriction enzymes SalI and Aflil. The obtained DNA fragment was inserted into ACC2/pFAST-BacHTa digested with restriction enzymes SalI and AfilI to give expression plasmid ACC2mito7/pFAST-BacHTa.
Using the expression plasmid ACC2mito7/pFAST-BacHTa and BAC-TO-BAC Baculovirus Expression System (Invitrogen), virus stock BAC-ACC2 of recombinant Baculovirus (N terminal deleted (hereinafter Nd)) was prepared.
(2) Preparation of ACC2 (Nd) Protein
SF-9 cells (Invitrogen) were inoculated to a medium (2 L) for insect cells (Sf-900IISFM medium (Invitrogen) containing 10% fetal bovine serum (Trace), 50 mg/L Gentamicin (Invitrogen), 0.1% Pluronic F-68 (Invitrogen)) at 0.5×10^6 cells/mL, and cultured with shaking in Wave Bioreactor (Wave) at 27° C., 20 rpm, rocking angle 6°, oxygen concentration 30%.
On day 4 of the culture, 3 L of the medium for insect cells was added, the rocking angle was set to 8°, and the cells were further cultured. On day 5 of the culture, 100 mL of recombinant Baculovirus BAC-ACC2 (Nd) was added, 5 L of the medium for insect cells was further added, the rocking angle was set to 11°, and the cells were cultured for 3 days. The culture medium was centrifuged at 1000×g for 10 min to give virus-infected cells. The cells were washed with phosphate buffered saline (Invitrogen) and centrifuged under the same conditions. The obtained cells were cryopreserved at −80° C.
The cryopreserved cells were thawed in ice and suspended in 900 mL of 25 mM HEPES buffer (pH 7.5) containing 10% Glycerol, 0.13 M NaCl, 1 mM EDTA, 25 mM Sodium β-Glycerophosphate and 1 mM Sodium Orthovanadate, and supplemented with Complete Protease Inhibitor (Nippon Boehringer Ingelheim Co., Ltd.). The obtained suspension was homogenized three times in a polytron homogenizer (Kinematica) at 20,000 rpm for 30 sec. The obtained cell disruption solution was clarified by centrifugation at 31000×g for 60 min, and filtered through a 0.45 μm filter. The filtrate was passed through a column packed with 60 mL of Ni-NTA Super Flow Gel (QUIAGEN) at a flow rate of about 5 mL/min. The column was washed with buffer A (50 mM HEPES (pH 7.5) containing 0.3 M NaCl), further washed with buffer A containing 20 mM Imidazole, and eluted with buffer A containing 100 mM Imidazole. The eluate was concentrated with Vivaspin 20 (Vivascience) with a molecular weight cut off of 30K. The obtained concentrate was dialyzed against 50 mM HEPES (pH 7.5) containing 10 mM MgCl2, 2 mM Dithiothreitol, 10 mM Tripotassium Citrate and 0.3 M NaCl. […]

Series [2] concerns Malonyl-CoA content of femoral muscle. The series can be described thus: Malonyl CoA content measurement in femoral muscle after gavage (LC/MS/MS). Type of series: in vivo. To be noted: male F344/Jcl rats, 10 mg/kg by gavage, femoral muscle 2 hours after dosing; Mean ± S.D.; vehicle 1.955 ± 0.496. The procedure:
Male F344/Jcl rats (CLEA Japan, Inc., Tokyo) purchased at 5 weeks of age were acclimated to the rearing environment, and used for an experiment of malonyl CoA content measurement at 10 weeks of age. In the experiment of malonyl CoA content measurement, the body weight was measured in the morning (8:00-11:00) 3 days before administration of a test compound, and the rats were divided into groups free of dispersion in the body weight between administration groups. The test compound was prepared as a 0.5% methyl cellulose (Wako) suspension to a dose of 5 mL/kg, in the afternoon (12:00-17:00) of one day before administration by gavage, and administered by gavage according to the body weight on the day of test compound administration. The vehicle group was administered with a solvent (0.5% methyl cellulose) alone by gavage. […]
A sample homogenate for the malonyl CoA measurement was prepared by disrupting a frozen tissue with a measured weight in a Multi-beads shocker (MB400U, Yasui Kikai Corporation), adding an extract (6% perchloric acid:aqueous di-n-butylammonium acetate solution (IPC-DBAA, 0.5 mol/L, TOKYO CHEMICAL INDUSTRY CO., LTD.)=1000:1, 500 μL) containing an internal standard substance ([^13C3]-malonyl CoA lithium salt (100 pmol/mL, Sigma-Aldrich)), and applying the mixture to the Multi-beads shocker again. […]

As usually defined, the melting point is the temperature of the solid-liquid transition.

T1 sequence (O00763 117-2458 limits assumed, stated change not applied): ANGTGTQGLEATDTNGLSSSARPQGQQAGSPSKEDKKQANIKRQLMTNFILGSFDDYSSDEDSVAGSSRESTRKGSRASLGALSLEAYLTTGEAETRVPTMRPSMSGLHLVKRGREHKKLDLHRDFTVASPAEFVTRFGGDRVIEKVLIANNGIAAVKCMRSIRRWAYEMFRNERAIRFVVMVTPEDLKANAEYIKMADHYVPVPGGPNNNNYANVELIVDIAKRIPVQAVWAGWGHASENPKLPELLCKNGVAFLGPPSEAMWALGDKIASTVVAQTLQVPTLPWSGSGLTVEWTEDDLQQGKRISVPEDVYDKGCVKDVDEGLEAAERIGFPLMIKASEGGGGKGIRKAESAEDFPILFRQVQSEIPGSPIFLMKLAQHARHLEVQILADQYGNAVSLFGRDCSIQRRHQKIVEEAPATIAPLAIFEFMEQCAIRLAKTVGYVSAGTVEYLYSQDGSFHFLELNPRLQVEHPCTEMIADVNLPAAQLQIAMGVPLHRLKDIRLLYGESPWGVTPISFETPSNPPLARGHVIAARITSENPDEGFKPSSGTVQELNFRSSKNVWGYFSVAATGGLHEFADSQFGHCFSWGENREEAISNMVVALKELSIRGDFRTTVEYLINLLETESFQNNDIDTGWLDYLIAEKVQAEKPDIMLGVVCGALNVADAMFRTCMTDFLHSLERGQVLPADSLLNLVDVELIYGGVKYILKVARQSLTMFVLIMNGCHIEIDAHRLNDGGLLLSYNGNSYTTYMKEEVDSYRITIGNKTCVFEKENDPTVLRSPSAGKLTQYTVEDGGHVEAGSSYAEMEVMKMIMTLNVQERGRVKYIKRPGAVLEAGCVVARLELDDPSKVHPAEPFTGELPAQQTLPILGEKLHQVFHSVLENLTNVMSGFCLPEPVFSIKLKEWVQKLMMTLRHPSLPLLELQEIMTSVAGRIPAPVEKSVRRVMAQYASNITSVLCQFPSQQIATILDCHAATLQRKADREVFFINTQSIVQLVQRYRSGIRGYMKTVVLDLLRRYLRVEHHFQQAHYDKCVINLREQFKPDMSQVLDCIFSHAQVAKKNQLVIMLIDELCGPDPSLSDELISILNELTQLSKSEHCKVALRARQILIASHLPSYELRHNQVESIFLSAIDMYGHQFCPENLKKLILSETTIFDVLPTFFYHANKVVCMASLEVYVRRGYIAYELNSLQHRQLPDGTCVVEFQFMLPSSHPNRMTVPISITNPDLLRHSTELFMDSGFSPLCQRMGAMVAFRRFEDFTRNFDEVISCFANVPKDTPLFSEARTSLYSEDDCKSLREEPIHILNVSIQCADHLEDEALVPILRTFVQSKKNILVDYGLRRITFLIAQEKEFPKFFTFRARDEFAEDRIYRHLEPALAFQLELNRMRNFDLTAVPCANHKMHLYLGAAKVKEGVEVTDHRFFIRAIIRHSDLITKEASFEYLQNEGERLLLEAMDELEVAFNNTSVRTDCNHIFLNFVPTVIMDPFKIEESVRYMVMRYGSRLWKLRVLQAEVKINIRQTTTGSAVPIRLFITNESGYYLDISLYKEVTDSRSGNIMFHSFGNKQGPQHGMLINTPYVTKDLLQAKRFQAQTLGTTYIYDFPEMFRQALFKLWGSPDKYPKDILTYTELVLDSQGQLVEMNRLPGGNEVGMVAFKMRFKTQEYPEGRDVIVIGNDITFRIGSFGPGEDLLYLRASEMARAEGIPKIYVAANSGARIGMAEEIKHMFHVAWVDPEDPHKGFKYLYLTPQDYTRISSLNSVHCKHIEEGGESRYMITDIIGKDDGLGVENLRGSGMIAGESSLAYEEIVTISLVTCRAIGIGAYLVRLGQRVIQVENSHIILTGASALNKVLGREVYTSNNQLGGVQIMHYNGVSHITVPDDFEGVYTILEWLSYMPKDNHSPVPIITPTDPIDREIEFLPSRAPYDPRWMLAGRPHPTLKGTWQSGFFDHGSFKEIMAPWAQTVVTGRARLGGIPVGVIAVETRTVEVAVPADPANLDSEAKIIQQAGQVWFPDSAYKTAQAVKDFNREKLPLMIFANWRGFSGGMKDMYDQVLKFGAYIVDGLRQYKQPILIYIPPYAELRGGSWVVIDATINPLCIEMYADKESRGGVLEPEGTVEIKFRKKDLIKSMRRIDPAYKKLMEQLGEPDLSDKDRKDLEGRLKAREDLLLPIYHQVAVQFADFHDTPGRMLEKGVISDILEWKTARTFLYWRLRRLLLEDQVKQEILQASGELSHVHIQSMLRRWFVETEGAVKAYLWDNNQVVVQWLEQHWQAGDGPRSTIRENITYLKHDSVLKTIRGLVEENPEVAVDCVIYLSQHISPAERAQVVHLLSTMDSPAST

Consider `CCOc1ccc2nc(-c3ccc(OC[C@H](C)NC(C)=O)cn3)oc2c1` [Example 28, N-[(1S)-2-{[6-(6-ethoxy-1,3-benzoxazol-2-yl)pyridin-3-yl]oxy}-1-methylethyl]acetamide], for which the inhibition at 10 µM in series [1] worked out at 83%. In addition, the “malonyl-CoA (nmol/g-tissue), Malonyl-CoA content of femoral muscle at 2 hours after dosing” value in series [2] is reported as 0.663 ± 0.119 nmol/g-tissue.
`CC(=O)N[C@@H](C)COc1cnc(-c2nc3ccc(OCC4CC4)cc3o2)c(F)c1` [Example 6, N-[(1S)-2-({6-[6-(cyclopropylmethoxy)-1,3-benzoxazol-2-yl]-5-fluoropyridin-3-yl}oxy)-1-methylethyl]acetamide] showed a melting point of 158 to 159 °C. The inhibition at 10 µM in series [1] worked out at 95%. The “malonyl-CoA (nmol/g-tissue), Malonyl-CoA content of femoral muscle at 2 hours after dosing” value in series [2] is 0.513 ± 0.048 nmol/g-tissue.
For `C[C@@H](COc1cnc(-c2nc3ccc(OCC4CC4(F)F)cc3o2)c(F)c1)NC(N)=O` (stereo partly drawn) [Example 111, Diastereomer of 1-{(1S)-2-[(6-{6-[(2,2-difluorocyclopropyl)methoxy]-1,3-benzoxazol-2-yl}-5-fluoropyridin-3-yl)oxy]-1-methylethyl}urea (retention time: short)], the “ACC2 inhibitory rate at 10 μM (%)” value in series [1] (10 µM) stood at 100%.
On to `CC(=O)N[C@@H](C)COc1ccc(-c2nc3cc(OCC4CC4)ccn3n2)cc1` [Example 95, N-[(1S)-2-{4-[7-(cyclopropylmethoxy) [1,2,4]triazolo[1,5-a]pyridin-2-yl]phenoxy}-1-methylethyl]acetamide], for which the inhibition at 10 µM in series [1] worked out at 94%.
In the case of `CC(=O)N[C@@H](C)COc1cc(-c2nc3cc(OCC4CC4)ccc3o2)on1` [Example 2, N-[(1S)-2-({5-[5-(cyclopropylmethoxy)-1,3-benzoxazol-2-yl]isoxazol-3-yl}oxy)-1-methylethyl]acetamide], the melting point was 156 to 157 °C. Also, in series [1], the inhibition at 10 µM came out at 92%.
Regarding `CCC1(c2ccc(OC[C@H](C)NC(C)=O)cn2)Cc2ccc(OCC3CC3)cc2O1` (stereo partly drawn) [Example 119, Diastereomer of N-[(1S)-2-({6-[6-(cyclopropylmethoxy)-2-ethyl-2,3-dihydro-1-benzofuran-2-yl]pyridin-3-yl}oxy)-1-methylethyl]acetamide], the inhibition at 10 µM in series [1] came to 97%.
Consider `CC(=O)N[C@@H](C)COc1ccc(-c2nc3ccc(OCC4CC4)cc3o2)nc1` [Example 1, N-[(1S)-2-({6-[6-(cyclopropylmethoxy)-1,3-benzoxazol-2-yl]pyridin-3-yl}oxy)-1-methylethyl]acetamide], for which the melting point was 179 to 180 °C. Also, the inhibition at 10 µM in series [1] amounted to 101%.
Turning to `C[C@@H](COc1ccc(-c2nc3ccc(OCC4CC4)cc3o2)nc1)NC(N)=O` [Example 15, 1-[(1S)-2-({6-[6-(cyclopropylmethoxy)-1,3-benzoxazol-2-yl]pyridin-3-yl}oxy)-1-methylethyl]urea], the inhibition at 10 µM in series [1] is 92%.
